The results in this text go back to patent US9101566B2, “Fermentation product of cereal plant-derived material and immunomodulator” (KIRIN HOLDINGS KABUSHIKI KAISHA, priority 2009, dated 2015).

Data set [1] concerns multiple sclerosis model mouse (Experimental Autoimmune Encephalomyelitic; EAE). In words: Multiple sclerosis model mouse (EAE): disease score (Example 15). In kind it is in vivo. Conditions: 10 μg/animal i.p. once a day, days 7 to 18; vs vehicle group. The protocol: Eight-week-old female C57BL/6 mice were divided into the following 2 groups at 5 mice per group:
(2) 14-DHE Group (10 μg/Animal)
(§1) On day 0, the 35-55 peptide (MOG35-55, Operon), a glycoprotein of myelin oligodendroglial cells, as an antigen was mixed with complete Freund's adjuvant (CFA, Difco) and then the mixture was subcutaneously administered at a dose of 200 μg/animal. Subsequently, pertussis toxin (Wako Pure Chemical Industries, Japan) was intraperitoneally administered at a dose of 200 ng/animal on day 1 and day 3, thereby inducing the onset of multiple sclerosis. During days 7 to 18, 14-DHE was intraperitoneally administered at a dose of 10 μg/animal once a day. To the vehicle group, the following solvent for 14-DHE was administered: 10% ethanol (Wako Pure Chemical Industries, Japan)/10% Cremophor (Wako Pure Chemical Industries, Japan)/80% PBS (Takara, Japan).
During the experimental period (i.e., during days 0 to 20), disease score was determined based on the following criteria:
Score 1: Unable to freely move tail
Score 2: Unable to normally walk
Score 3: Paralysis of one hindlimb
Score 4: Paralysis of both hindlimbs
Score 5: Paralysis of forelimbs and hindlimbs

Data set [2] concerns dendritic cells induced from C57BL/6 mouse bone marrow cells with Flt-3L (mDCs, CD11c+CD11b+). The data set can be described thus: Regulatory DC-inducing activity of 14-dehydroergosterol (Example 9). In kind it is cell-based. On the procedure: Regulatory DC induction activity was evaluated for 14-dehydroergosterol (14-DHE) isolated and purified from wheat bran fermented with koji as described above and subjected to structural determination. As controls, ergosterol (Wako Pure Chemical Industries, Japan) and 9(11)-dehydroergosterol (9(11)-DHE) (Sigma-Aldrich Corp.), which are ergosterol-related substances, were used. Also, as conjugated linoleic acid (CLA) that was reported in connection with the inhibition of DC activation in the past, CLA (9Z, 11E) and CLA (10E, 12Z) (both, Cayman Chemical), and linoleic acid (Wako Pure Chemical Industries, Japan) were also subjected to activity determination (J. Immunol., 175(8): 4990-8, Oct. 15, 2005). As negative controls, a sample (none) to which no compound had been administered and a sample (ctrl) to which only LPS had been administered were also subjected to activity determination.
In a manner similar to Example 2, bone marrow cells were prepared from C57BL/6 mouse thigh bone, and then dendritic cells were induced using Flt-3L. Each test substance was added simultaneously with the initiation of culture at a concentration of 1 μM, 5 μM, or 10 μM. Seven days later, LPS (from Salmonella typhosa) (Sigma-Aldrich Corp.) was added at 5 ng/mL and then 24 hours later the cells were recovered. Subsequently, the cells were stained for the following cell markers and then subjected to flow cytometry analysis. All antibodies used were produced by Becton, Dickinson and Company. CD11c^+CD11b^+ was set as a gate for mDCs and then the expression levels of CD40, CD80, CD86, I-A/I-E, and ICOS-L were measured. Also, IL-12p40 and IL-10 in culture supernatants were measured by ELISA.

For data set [3], the system named is regional lymph node cells and spleen cells of EAE mice. In words: EAE model, day 11 autopsy: inflammatory cytokines produced by lymph node and spleen cells (ELISA). In kind it is in vivo, mouse. The protocol: as §1
Mice were autopsied on day 11 (when inflammation was thought to take place in vivo) to obtain biochemical data.
(1) Spleen cells were prepared and then cultured for 7 days with or without re-stimulation with 2 μM MOG. Culture supernatants were recovered. The amounts of produced IFN-γ and TNF-α were measured by ELISA.

The next data set in a line: Solubility in solvent. It is filed as physicochemical.
The test system of data set [4] is human DCs from peripheral blood CD14-positive cells. The data set can be described thus: Human regulatory DC-inducing activity of 14-DHE (Example 16). It is filed as cell-based. As to conditions: 14-DHE 1, 3 or 10 μM; ergosterol 10 μM; LPS/IFN-γ or cytokine cocktail 24 h. On the procedure: Mononuclear cells were prepared from human peripheral blood by density-gradient centrifugation using Ficoll-Paque (GE Healthcare, Japan). These cells were subjected to positive selection using anti-human CD14 MACS beads (Miltenyi Biotec), so that CD14-positive cells were obtained. CD14-positive cells were cultured in RPMI1640 media (containing 10% FBS (Invitrogen), 50 μmol/L 2-mercaptoethanol (Wako Pure Chemical Industries, Japan), 50 U/mL penicillin, and 50 μg/mL streptomycin (Gibco) (Sigma Aldrich)) supplemented with recombinant human GM-CSF (800 U/mL, Leukine, Berlex) and recombinant human IL-4 (100 ng/mL, Peprotech). During culture, medium exchange was performed once every 2 days. On day 7 of culture, 14-DHE was added at a concentration of 1 μM, 3 μM, or 10 μM. To a control, 10 μM ergosterol, which was a related substance, was added. Also, to a negative control, 1% ethanol, which was a solvent for 14-DHE, was added. The cells were recovered on day 8 of culture, counted, and then suspended at a density of 3×10^5 cells/mL in the above media. To cell suspensions, 1 μg/mL LPS and 100 ng/mL IFN-γ (both, Sigma Aldrich), or cytokine cocktail (1 μg/mL PGE2 (Sigma Aldrich), 10 ng/mL TNF-α, 2 μg/mL IL-6, and 10 ng/mL IL-1β (3 (all, BD Bioscience)) were added, followed by 24-hour culture. After culture, the cells were stained for CD86, HLA-DR, and CD80. Antibodies used were all produced by BD Bioscience. The gate of DCs was set by FSC and SSC, and the expression levels of these cell surface markers were analyzed.

[5] abbreviates: 1, 5 or 10 μM, LPS 5 ng/mL 24 h.
Setting [6] is: 1, 5 or 10 μM, LPS 5 ng/mL, culture supernatant.
Where [7] appears, read: re-stimulation with MOG antigen.

As to `CC(C)[C@@H](C)/C=C/[C@@H](C)[C@H]1CC=C2C3=CC=C4C[C@@H](O)CC[C@]4(C)[C@H]3CC[C@@]21C` [Sample 14-DHE, ergosta-5,7,14,22-tetraen-3β-ol], in data set [1], the accumulated disease score entry was “decreases were confirmed”, the incidence result is reported as “decreases were confirmed”, the maximum score entry is reported as “decreases were confirmed” and the onset entry was “delayed onset”. Also, in data set [2] (setting [5]), the “expression level of CD40” value is given as “significantly decreased”, the “expression level of CD80” value is “significantly decreased”, the “expression level of CD86” value is recorded as “significantly decreased” and the “expression level of ICOS-L marker” value is reported as “remained almost unchanged”. The “expression level of MHC class II molecule I-A/I-E” value in data set [2] (setting [5]) was “significantly decreased”. Moreover, in data set [2] (setting [6]), the “expression of anti-inflammatory cytokine IL-10 (ELISA)” value is reported as “slightly increased” and the “expression of inflammatory cytokine IL-12p40 (ELISA)” value is listed as “drastically decreased”. Also, the “effective concentration on DCs” value in data set [2] (DCs) worked out at 1 µM. Further, the “IFN-γ production from regional lymph node cells” value in data set [3] (not re-stimulated with MOG antigen) was “significantly decrease”. Moreover, in data set [3] (re-stimulated with MOG antigen), the “TNF-α production from spleen cells” value is listed as “decreased”. Besides, in data set [3] (setting [7]), the “IFN-γ production from regional lymph node cells” value is “decreasing trend” and the “IFN-γ production from spleen cells” value is reported as “decreasing trend”. Also, the “TNF-α production from regional lymph node cells” value in data set [3] (with or without re-stimulation with MOG antigen) was “significantly decreased”. For the same compound, the “Solubility in solvent: chloroform” value in the data set “Solubility in solvent” (chloroform) is recorded as “readily soluble”. Also, the “Solubility in solvent: ethanol” value in “Solubility in solvent” (ethanol) is given as “hardly soluble”. In addition, the “Solubility in solvent: water” value in “Solubility in solvent” (water) is recorded as “insoluble”. Besides, in data set [4], the “expression level of CD80 on human DCs” value is given as “decreased”, the “expression level of CD86 on human DCs” value was “decreased” and the “expression level of MHC class II molecule HLA-DR on human DCs” value is “decreased”.
